Assays:
[1] = system: Notch2 intracellular domain (ICD); experiment: Notch2 signaling in cultured oval cells (Western blot for γ-secretase cleaved Notch2 ICD; Hes1 expression); type: cell-based, mouse; conditions: FIG. 2H
Text: The anti-activated Notch2 antibody (clone 40-2-7) was generated against the peptide VIMAKRKRKHGSLW, corresponding to amino acids 1697-1710 of the human Notch2 protein sequence (SEQ ID NO:73), coupled to KLH (YenZym Custom Antibodies, LLC). Splenocytes from a rabbit producing an antibody with the appropriate specificity were used to generate hybridomas (Epitomics, Inc.). Clone 40-2-7 was identified by screening the resulting rabbit monoclonal antibodies by immunoblotting and immunohistochemistry. This antibody recognizes both human (FIG. 7B, left panel) and mouse (FIG. 7B, right panel) active Notch2 at endogenous levels.
Progenitors cultured in the culture system maintained growth (FIG. 2A) and formed colonies consisting of small, tightly packed cells with a high nuclear-cytoplasmic ratio and a distinct raised edge (FIG. 2A, left panel). The cells within these colonies were uniformly EpCAM positive (FIG. 2A, right panel). […] Activated Notch2 was detected by Western blot analysis using a rabbit monoclonal antibody raised against the S3 cleaved form of the human Notch2 protein (FIG. 7B). […]
Notch2 signaling was active in cultured oval cells, as transcriptionally active Notch2 intracellular domain (ICD) could be detected using an antibody specific to the γ-secretase cleaved form of this receptor (FIG. 2H). […]

[2] = system: primary oval cells (liver progenitor cells); experiment: Colony formation and proliferation of primary oval cell cultures on Sw-3T3 feeder fibroblasts; type: cell-based, mouse
Description: To identify the signals that regulate hepatocyte differentiation from liver progenitor cells, transcriptional profiling was performed on adult liver progenitors (oval cells) from mice fed a choline deficient, ethionine supplemented (CDE) diet (FIG. 1A; FIG. 5A). This CDE model is known in the art as a model of chronic liver disease. CDE is also a steatohepatitis model (NASH). Chronic CDE can also lead to hepatocellular carcinoma (HCC), thereby also serving as a model for HCC. To induce an oval cell response, 8-12 week-old female C57BL/6N mice (Charles River) were fed a choline deficient diet (20% Lard; Teklad TD.04523) supplemented with 0.15% (w/v) Ethionine in the drinking water (Akhurst et al., Hepatology 34(3):519 (2001)). Liver non-parenchymal cells were isolated according to the protocol of del Castillo (del Castillo et al., Am. J. Pathol., 172(5):1238 (2008)) with the addition of 0.04% Hyaluronidase (Sigma) to the in vitro dissociation step.
To elucidate the role of Notch signaling in liver regeneration, an in vitro culture system was developed. Cell cultures were established by culturing primary oval cells on Sw-3T3 fibroblasts (ATCC), arrested with Mitomycin C (Sigma), in High Glucose Dulbecco's Modified Eagle Medium (DMEM; Invitrogen) supplemented with 15% Fetal Calf Serum (Sigma), non-essential amino acids (Invitrogen), Glutamax (Invitrogen), and ITS (Invitrogen).

In the case of C[C@H](NC(=O)Cc1cc(F)cc(F)c1)C(=O)N[C@H](C(=O)OC(C)(C)C)c1ccccc1 [DAPT, N—[N-(3,5-difluorophenacetyl)-1-alanyl]-S-phenylglycine t-butyl ester], the “appearance of γ-secretase cleaved (active) form of Notch2” value [1] is reported as “absent”, the progenitor cell proliferation ([2]; FIG. 2D) is reported as “small increase” and the “enhancement of colony formation” value ([2]; primary cultures treated with DAPT, FIG. 2B) is reported as “approximately ten-fold”.
